# Data: PubChem BioAssay (NCI)
#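 Results reflect a 48-hour exposure of cells in 96-well plates to compound at five concentrations. TGI: total growth inhibition.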
# What was measured:
# Assay in all cases: NCI-60 cell line screen, 48 h
# IGROV1 ovarian = system: IGROV1 ovarian
# HT29 colon = system: HT29 colon
# SNB-75 CNS = system: SNB-75 CNS
# ACHN renal = system: ACHN renal
# HCT-15 colon = system: HCT-15 colon
# 786-0 renal = system: 786-0 renal
# SF-539 CNS = system: SF-539 CNS
# OVCAR-4 ovarian = system: OVCAR-4 ovarian
# BT-549 breast = system: BT-549 breast
# SK-MEL-28 melanoma = system: SK-MEL-28 melanoma
# OVCAR-5 ovarian = system: OVCAR-5 ovarian
# MDA-MB-435 = system: MDA-MB-435
# SK-MEL-5 melanoma = system: SK-MEL-5 melanoma
# LOX IMVI melanoma = system: LOX IMVI melanoma
# OVCAR-3 ovarian = system: OVCAR-3 ovarian
# SF-268 CNS = system: SF-268 CNS
# HCT-116 colon = system: HCT-116 colon
# KM12 colon = system: KM12 colon
# OVCAR-8 ovarian = system: OVCAR-8 ovarian
# T-47D breast = system: T-47D breast
# RPMI-8226 leukemia = system: RPMI-8226 leukemia
# U251 CNS = system: U251 CNS
# UACC-62 melanoma = system: UACC-62 melanoma
# CAKI-1 renal = system: CAKI-1 renal
# UO-31 renal = system: UO-31 renal
# SN12C renal = system: SN12C renal
# HS 578T breast = system: HS 578T breast
# MDA-MB-231 breast = system: MDA-MB-231 breast
# NCI-H226 lung = system: NCI-H226 lung
# DU-145 prostate = system: DU-145 prostate
# UACC-257 melanoma = system: UACC-257 melanoma
# HL-60(TB) leukemia = system: HL-60(TB) leukemia
# EKVX NSCLC = system: EKVX NSCLC
# HCC-2998 colon = system: HCC-2998 colon
# SNB-19 CNS = system: SNB-19 CNS
# NCI-H460 lung = system: NCI-H460 lung
# SR leukemia = system: SR leukemia
# HOP-62 NSCLC = system: HOP-62 NSCLC
# SK-OV-3 ovarian = system: SK-OV-3 ovarian
# SW-620 colon = system: SW-620 colon
# MOLT-4 leukemia = system: MOLT-4 leukemia
# NCI/ADR-RES ovarian = system: NCI/ADR-RES ovarian
# M14 melanoma = system: M14 melanoma
# K-562 leukemia = system: K-562 leukemia
# MCF7 breast = system: MCF7 breast
# SK-MEL-2 melanoma = system: SK-MEL-2 melanoma
# NCI-H23 lung = system: NCI-H23 lung
# TK-10 renal = system: TK-10 renal
# CCRF-CEM leukemia = system: CCRF-CEM leukemia
# A549 NSCLC = system: A549 NSCLC
# HOP-92 NSCLC = system: HOP-92 NSCLC
# PC-3 prostate = system: PC-3 prostate
# MALME-3M melanoma = system: MALME-3M melanoma
# NCI-H522 lung = system: NCI-H522 lung
# COLO 205 colon = system: COLO 205 colon
structure (smiles),measurement,setting,value
COc1cc(/C=C/C=C2\CC(C)C/C(=C\C=C\c3ccc(O)c(OC)c3)C2=O)ccc1O (stereo not given),TGI,IGROV1 ovarian,20.8 µM
same,TGI,HT29 colon,31 µM
same,TGI,SNB-75 CNS,32.3 µM
same,TGI,ACHN renal,40.8 µM
same,TGI,HCT-15 colon,> 100 µM
same,TGI,786-0 renal,47.9 µM
same,TGI,SF-539 CNS,82.3 µM
same,TGI,OVCAR-4 ovarian,39.9 µM
same,TGI,BT-549 breast,27.3 µM
same,TGI,SK-MEL-28 melanoma,45.5 µM
same,TGI,OVCAR-5 ovarian,28.8 µM
same,TGI,MDA-MB-435,41 µM
same,TGI,SK-MEL-5 melanoma,37.6 µM
same,TGI,LOX IMVI melanoma,65.1 µM
same,TGI,OVCAR-3 ovarian,31.1 µM
same,TGI,SF-268 CNS,> 100 µM
same,TGI,HCT-116 colon,> 100 µM
same,TGI,KM12 colon,> 100 µM
same,TGI,OVCAR-8 ovarian,30.9 µM
same,TGI,T-47D breast,> 100 µM
same,TGI,RPMI-8226 leukemia,48.1 µM
same,TGI,U251 CNS,33 µM
same,TGI,UACC-62 melanoma,26.7 µM
same,TGI,CAKI-1 renal,33.2 µM
same,TGI,UO-31 renal,25.1 µM
same,TGI,SN12C renal,> 100 µM
same,TGI,HS 578T breast,> 100 µM
same,TGI,MDA-MB-231 breast,32.4 µM
same,TGI,NCI-H226 lung,28 µM
same,TGI,DU-145 prostate,> 100 µM
same,TGI,UACC-257 melanoma,89.7 µM
same,TGI,HL-60(TB) leukemia,33.8 µM
same,TGI,EKVX NSCLC,> 100 µM
same,TGI,HCC-2998 colon,> 100 µM
same,TGI,SNB-19 CNS,96.2 µM
same,TGI,NCI-H460 lung,92.3 µM
same,TGI,SR leukemia,91.4 µM
same,TGI,HOP-62 NSCLC,37.8 µM
same,TGI,SK-OV-3 ovarian,18.2 µM
same,TGI,SW-620 colon,> 100 µM
same,TGI,MOLT-4 leukemia,29.6 µM
same,TGI,NCI/ADR-RES ovarian,77.4 µM
same,TGI,M14 melanoma,46.9 µM
same,TGI,K-562 leukemia,> 100 µM
same,TGI,MCF7 breast,42 µM
same,TGI,SK-MEL-2 melanoma,> 100 µM
same,TGI,NCI-H23 lung,40.2 µM
same,TGI,TK-10 renal,16 µM
same,TGI,CCRF-CEM leukemia,15.6 µM
same,TGI,A549 NSCLC,> 100 µM
same,TGI,HOP-92 NSCLC,23.4 µM
same,TGI,PC-3 prostate,48.8 µM
same,TGI,MALME-3M melanoma,31.1 µM
same,TGI,NCI-H522 lung,2.5 µM
same,TGI,COLO 205 colon,> 100 µM
